Reference: patent publication US20130324412A1, “N-ALKOXYAMIDES OF 6-(SUBSTITUTED PHENYL)-4-AMINOPICOLINATES AND 2-(SUBSTITUTED PHENYL)-6-AMINO-4-PYRIMIDINECARBOXYLATES AND THEIR USE AS SELECTIVE HERBICIDES FOR CROPS” (DOW AGROSCIENCES LLC, priority 2009, published 2013)

Columns and labels:
Assay type in all cases: in vivo
[1] = tested on: velvetleaf (Abutilon theophrasti); test: General postemergence herbicidal activity, velvetleaf; conditions: post-emergence, 336 h, postemergence, after 14 d, 0 = no injury, 100 = complete kill, read-out: ABUTH % Visual Injury; for pest or weed control at 70 g/ha: 70 g ai/ha; for pest or weed control at 140 g/ha: 140 g ai/ha; for pest or weed control at 35 g/ha: 35 g ai/ha
Description: (§1) Seeds or nutlets of the desired test plant species were planted in Sun Gro MetroMix® 360 planting mixture, which typically has a pH of 6.0 to 6.8 and an organic matter content of about 30 percent, in plastic pots with a surface area of 64 square centimeters (cm^2). When required to ensure good germination and healthy plants, a fungicide treatment and/or other chemical or physical treatment was applied. The plants were grown for 7-21 days (d) in a greenhouse with an approximate 15-hour (h) photoperiod which was maintained at about 23-29° C. during the day and 22-28° C. during the night. Nutrients and water were added on a regular basis and supplemental lighting was provided with overhead metal halide 1000-Watt lamps as necessary. The plants were employed for testing when they reached the first or second true leaf stage.
(§2) A weighed amount, determined by the highest rate to be tested, of each test compound was dissolved in 4 mL of a 97:3 volume per volume (v/v) mixture of acetone and dimethyl sulfoxide (DMSO) to obtain concentrated stock solutions. […] The concentrated stock solutions obtained were diluted with 20 mL of an aqueous mixture containing acetone, water, isopropyl alcohol, DMSO, Atplus 411F crop oil concentrate, and Triton X-155 surfactant in a 48.5:39:10:1.5:1.0:0.02 v/v ratio to obtain spray solutions containing the highest application rates. Additional application rates were obtained by serial dilution of 12 mL of the high rate solution into a solution containing 2 mL of 97:3 v/v mixture of acetone and DMSO and 10 mL of an aqueous mixture containing acetone, water, isopropyl alcohol, DMSO, Atplus 411F crop oil concentrate, and Triton X-155 surfactant in a 48.5:39:10:1.5:1.0:0.02 v/v ratio to obtain ½×, ¼×, ⅛× and 1/16× rates of the high rate. Compound requirements are based upon a 12 mL application volume at a rate of 187 liters per hectare (L/ha). Formulated compounds were applied to the plant material with an overhead Mandel track sprayer equipped with 8002E nozzles calibrated to deliver 187 L/ha over an application area of 0.503 square meters (m^2) at a spray height of 18 inches (43 cm) above the average plant canopy height. Control plants were sprayed in the same manner with the solvent blank.
(§3) The treated plants and control plants were placed in a greenhouse as described above and watered by sub-irrigation to prevent wash-off of the test compounds. After 14 d, the condition of the test plants as compared with that of the untreated plants was determined visually and scored on a scale of 0 to 100 percent where 0 corresponds to no injury and 100 corresponds to complete kill.

[2] = tested on: wild buckwheat (Polygonum convululus); test: General postemergence herbicidal activity, wild buckwheat; conditions: post-emergence, 336 h, postemergence, after 14 d, 0 = no injury, 100 = complete kill, read-out: POLCO % Visual Injury; for pest or weed control at 70 g/ha: 70 g ai/ha; for pest or weed control at 140 g/ha: 140 g ai/ha; for pest or weed control at 35 g/ha: 35 g ai/ha
Description: as §1, §2, §3

corn (Zea mays) = test: General postemergence herbicidal activity, corn; conditions: post-emergence, 336 h, postemergence, after 14 d, 0 = no injury, 100 = complete kill, read-out: ZEAMX % Visual Injury; for plant injury at 70 g/ha: 70 g ai/ha; for plant injury at 140 g/ha: 140 g ai/ha; for plant injury at 35 g/ha: 35 g ai/ha
Description: as §1, §2, §3

[3] = tested on: lambsquarters (Chenopodium album); test: General postemergence herbicidal activity, lambsquarters; conditions: post-emergence, 336 h, postemergence, after 14 d, 0 = no injury, 100 = complete kill, read-out: CHEAL % Visual Injury; for pest or weed control at 70 g/ha: 70 g ai/ha; for pest or weed control at 140 g/ha: 140 g ai/ha; for pest or weed control at 35 g/ha: 35 g ai/ha
Description: as §1, §2, §3

Row | Compound | pest or weed control at 70 g/ha [1] [%] | pest or weed control at 70 g/ha [2] [%] | plant injury at 70 g/ha (corn (Zea mays)) [%] | pest or weed control at 70 g/ha [3] [%] | further results
1 | C#CCONC(=O)c1nc(-c2ccc(Cl)c(OC)c2F)cc(N)c1Cl [Compound 13, 4-Amino-3-chloro-6-(4-chloro-2-fluoro-3-methoxyphenyl)-N-(2-propynyloxy)picolinamide] | 100 | 100 | 0 | 100 | –
2 | COc1c(Cl)ccc(-c2cc(N)c(Cl)c(C(=O)NOCc3ccc(C)cc3)n2)c1F [Compound 14, 4-Amino-3-chloro-6-(4-chloro-2-fluoro-3-methoxyphenyl)-N-(4-methyl-benzyloxy)picolinamide] | 100 | 100 | 15 | 100 | –
3 | COc1c(Cl)ccc(-c2cc(N)c(Cl)c(C(=O)NOCc3ccc(Cl)cc3)n2)c1F [Compound 15, 4-Amino-3-chloro-6-(4-chloro-2-fluoro-3-methoxyphenyl)-N-(4-chloro-benzyloxy)picolinamide] | 100 | 100 | 10 | 100 | –
4 | COC[C@H]1O[C@H](ONC(=O)c2nc(-c3ccc(Cl)c(OC)c3F)cc(N)c2Cl)[C@H](OC)[C@@H](OC)[C@@H]1OC [Compound 16, 4-Amino-3-chloro-6-(4-chloro-2-fluoro-3-methoxyphenyl)-N-((2R,3R,4S,5R,6R)-3,4,5-trimethoxy-6-(methoxymethyl)tetrahydro-2H-pyran-2-yloxy)picolinamide] | 100 | 95 | 10 | 100 | –
5 | COc1c(Cl)ccc(-c2cc(N)c(Cl)c(C(=O)NOC3CCCO3)n2)c1F (stereo not shown) [Compound 17, 4-Amino-3-chloro-6-(4-chloro-2-fluoro-3-methoxyphenyl)-N-(tetrahydrofuran-2-yloxy)picolinamide] | 100 | 100 | 10 | 100 | –
6 | COc1c(Cl)ccc(-c2cc(N)c(Cl)c(C(=O)NOC3C=CCCC3)n2)c1F (stereo not shown) [Compound 18, 4-Amino-3-chloro-6-(4-chloro-2-fluoro-3-methoxyphenyl)-N-(cyclohex-2-enyl-oxy)picolinamide] | – | – | – | – | pest or weed control at 140 g/ha [1]: 100%; pest or weed control at 140 g/ha [2]: 100%; plant injury at 140 g/ha (corn (Zea mays)): 5%; pest or weed control at 140 g/ha [3]: 100%
7 | COc1c(Cl)ccc(-c2cc(N)c(Cl)c(C(=O)NOCC(=O)O)n2)c1F [Compound 19, 2-(4-Amino-3-chloro-6-(4-chloro-2-fluoro-3-methoxyphenyl)picolinamidooxy)acetic acid] | – | – | – | – | pest or weed control at 35 g/ha [1]: 85%; pest or weed control at 35 g/ha [2]: 85%; plant injury at 35 g/ha (corn (Zea mays)): 25%; pest or weed control at 35 g/ha [3]: 100%
8 | COc1c(Cl)ccc(-c2cc(N)c(Cl)c(C(=O)NOc3ccccc3)n2)c1F [Compound 20, 4-Amino-3-chloro-6-(4-chloro-2-fluoro-3-methoxyphenyl)-N-phenoxypicolinamide] | 100 | 100 | 25 | 95 | –
9 | COc1c(Cl)ccc(-c2cc(N)c(Cl)c(C(=O)NOC(C)(C)C)n2)c1F [Compound 21, 4-Amino-N-tert-butoxy-3-chloro-6-(4-chloro-2-fluoro-3-methoxyphenyl)picolinamide] | – | – | – | – | pest or weed control at 140 g/ha [1]: 100%; pest or weed control at 140 g/ha [2]: 95%; plant injury at 140 g/ha (corn (Zea mays)): 0%; pest or weed control at 140 g/ha [3]: 95%
10 | COc1c(Cl)ccc(-c2cc(N)c(Cl)c(C(=O)NOCc3ccc(F)cc3)n2)c1F [Compound 22, 4-Amino-3-chloro-6-(4-chloro-2-fluoro-3-methoxyphenyl)-N-(4-fluoro-benzyloxy)picolinamide] | – | – | – | – | pest or weed control at 35 g/ha [1]: 100%; pest or weed control at 35 g/ha [2]: 100%; plant injury at 35 g/ha (corn (Zea mays)): 10%; pest or weed control at 35 g/ha [3]: 100%
11 | COc1ccc(CONC(=O)c2nc(-c3ccc(Cl)c(OC)c3F)cc(N)c2Cl)cc1 [Compound 23, 4-Amino-3-chloro-6-(4-chloro-2-fluoro-3-methoxyphenyl)-N-(4-methoxy-benzyloxy)picolinamide] | 100 | 100 | 15 | 100 | –
12 | COc1c(Cl)ccc(-c2cc(N)c(Cl)c(C(=O)N(C)O)n2)c1F [Compound 24, 4-Amino-3-chloro-6-(4-chloro-2-fluoro-3-methoxyphenyl)-N-hydroxy-N-methylpicolinamide] | 90 | 80 | 50 | 95 | –
13 | C=CCONC(=O)c1nc(-c2ccc(Cl)c(OC)c2F)nc(N)c1Cl [Compound 25, N-(2-Propenyloxy)-6-amino-5-chloro-2-(4-chloro-2-fluoro-3-methoxyphenyl)pyrimidine-4-carboxamide] | – | – | – | – | pest or weed control at 8.75 g/ha ([1]; 8.75 g ai/ha): 90%; pest or weed control at 8.75 g/ha ([2]; 8.75 g ai/ha): 100%; plant injury at 8.75 g/ha (corn (Zea mays); 8.75 g ai/ha): 60%; pest or weed control at 8.75 g/ha ([3]; 8.75 g ai/ha): 100%
14 | C=CCON(C)C(=O)c1nc(-c2ccc(Cl)c(OC)c2F)cc(N)c1Cl [Compound 26, N-(2-Propenyloxy)-4-amino-3-chloro-6-(4-chloro-2-fluoro-3-methoxyphenyl)-N-methylpicolinamide] | – | – | – | – | pest or weed control at 140 g/ha [1]: 95%; pest or weed control at 140 g/ha [2]: 95%; plant injury at 140 g/ha (corn (Zea mays)): 0%; pest or weed control at 140 g/ha [3]: 100%
15 | C=CCONC(=O)c1nc(Cl)cc(N)c1Cl [Compound 27, N-(2-Propenyloxy)-4-amino-3,6-dichloropicolinamide] | – | – | – | – | pest or weed control at 280 g/ha ([1]; 280 g ai/ha): 35%; pest or weed control at 280 g/ha ([2]; 280 g ai/ha): 100%; plant injury at 280 g/ha (corn (Zea mays); 280 g ai/ha): 0%; pest or weed control at 280 g/ha ([3]; 280 g ai/ha): 100%
16 | C=C(Cl)CONC(=O)c1nc(-c2ccc(Cl)c(OC)c2F)cc(N)c1Cl [Compound 29, 4-Amino-3-chloro-6-(4-chloro-2-fluoro-3-methoxyphenyl)-N-(2-chloro-2-propenyl-oxy)picolinamide] | – | – | – | – | pest or weed control at 35 g/ha [1]: 100%; pest or weed control at 35 g/ha [2]: 100%; plant injury at 35 g/ha (corn (Zea mays)): 50%; pest or weed control at 35 g/ha [3]: 100%
